Here are results for 83 compounds from ChEMBL document CHEMBL3988442, “University of Dundee, Small-Polar-MMV Screening Library” (2021).

Each structure is given as a SMILES string.

The nature of assay [1]: microbe, parasite or virus in culture. The settings on record: Mycobacterium tuberculosis, 96 h, read-out: pIC50 (converted).
Assay [2] in a line: microbe, parasite or virus in culture. The settings on record: Mycobacterium tuberculosis, 72 h, read-out: pIC50 (converted).

For the compound `Cc1ccc(-c2nc(CSc3nnc(N)[nH]3)no2)cc1`, the IC50 in assay [1] was 80.2 µM; in assay [2], 107 µM.
On to `CC(NC(=O)CSc1nc(=O)[nH]n1C)c1cccs1` (stereo unspecified), for which the values for the IC50 in assay [1] and in assay [2] were 234 µM and 175 µM, respectively.
For `CNC(=O)c1cccc(CNC(C)c2ccc(F)cc2N(C)C)c1` (stereo unspecified), in that order: over 50.1 µM and over 50.1 µM.
In the same order, the values of `COc1ccc(-c2cc(NCCO)nc(N)n2)cc1C` are over 501 µM and 280 µM.
On to `COCC1CCN(C(=O)c2cc(C3CC3)on2)CC1`, for which the IC50 in assay [1] was 26.5 µM; in assay [2], over 501 µM.
In the same order, the values of `CCOC(=O)c1cccnc1NCc1cnn(C)c1C` are over 501 µM and 180 µM.
Take `CC(Nc1ccc(F)cc1)C(=O)N1CCCC1` (stereo unspecified): the IC50 was 68.6 µM in assay [1] and 106 µM in assay [2].
In the same order, the values of `Cn1ccsc1=NC(=O)c1ccc(OCC(N)=O)cc1` are over 501 µM and over 501 µM.
For `NCCc1ccc2cc[nH]c2c1`, in that order: over 501 µM and 212 µM.
For `c1cc2c(cc1CNc1nnc(C3CC3)o1)OCCO2`, in that order: 179 µM and 151 µM.
For the compound `COc1ccc(CNCCc2ccn(-c3ccccc3)n2)cc1O`, the IC50 in assay [1] and in assay [2] was over 50.1 µM in each case.
With `Cc1[nH]c(=O)[nH]c(=O)c1CN1CCCC(CCc2ccccc2F)C1` (stereo unspecified), the IC50 in assay [1] and in assay [2] was over 50.1 µM throughout.
Turning to `COc1cccc(N2CCC(N)C2)c1` (stereo unspecified), the IC50 in assay [1] is 276 µM; in assay [2], 294 µM.
In the same order, the values of `CCc1ccc(CN2CC(N3CCOCC3)C2)o1` are 188 µM and 129 µM.
In the same order, the values of `O=C(c1cnsn1)N1CCCSc2ccc(F)cc21` are 164 µM and 200 µM.
In the same order, the values of `CNC(=O)[C@@H](C)Nc1ccc(C(F)(F)F)cn1` are over 501 µM and over 501 µM.
Consider `CC(=O)N1CCN(Cc2cc(Br)c3c(c2)OCO3)CC1`, for which the IC50 was 394 µM in assay [1] and over 501 µM in assay [2].
For `CN1CCC(CNC(=O)c2cccc(C(F)(F)F)c2)c2ccccc21` (stereo unspecified), in that order: over 50.1 µM and 45.5 µM.
For `COc1cccc(C(=O)N2CCOC3(CCCN(C(C)=O)C3)C2)c1` (stereo unspecified), in that order: over 50.1 µM and over 50.1 µM.
For `CC(O)(CNc1ncccc1F)C1CCCC1` (stereo unspecified), in that order: 262 µM and 142 µM.
Consider `COc1cc(NC(=O)NCc2nncn2C)ccc1Br`, for which the IC50 in assay [1] is over 501 µM; in assay [2], 218 µM.
In the same order, the values of `CC1CCCN(C(=O)c2nnn(-c3ccc(C(F)(F)F)cc3)n2)C1` (stereo unspecified) are 43.9 µM and 18.3 µM.
In the same order, the values of `Cc1cc(-c2noc(C(C)N)n2)ccc1F` (stereo unspecified) are over 501 µM and 457 µM.
For `CC(C)Sc1nnc(-c2cccnc2)o1`, in that order: 219 µM and 8.8 µM.
As for `O=C(NCCn1cccc1)c1ccc(Cl)cn1`, the IC50 in assay [1] was 52.9 µM; in assay [2], 57.9 µM.
For `Cc1noc(CSc2ccc(C(=O)N3CCC3)cc2)n1`, in that order: over 501 µM and over 501 µM.
In the same order, the values of `NS(=O)(=O)c1cccc(S(=O)(=O)c2ccc(Cl)cc2)c1` are 283 µM and 71.4 µM.
As for `CC(CO)Sc1ccc(S(=O)(=O)C(F)F)cc1` (stereo unspecified), the IC50 in assay [1] was 158 µM; in assay [2] it was 459 µM.
For `COCCN(Cc1ccsc1)C(=O)CC1CCNC1` (stereo unspecified), in that order: 80.1 µM and 187 µM.
For `CN(C)c1cc(Cn2cnc3sccc3c2=O)ccn1`, in that order: over 501 µM and over 501 µM.
For `CC(=O)NCCCNCc1cccc(C#N)c1`, in that order: over 501 µM and over 501 µM.
On to `CCCc1nc(N2CCCCC2)c2c(n1)c(C)nn2CC`, for which the IC50 was 39.3 µM in assay [1] and 38.4 µM in assay [2].
In the same order, the values of `COc1ccccc1CNc1ccc(C#N)cn1` are 279 µM and 194 µM.
For `O[C@@H]1CNC[C@H](O)C1`, in that order: over 501 µM and over 501 µM.
In the same order, the values of `NC(=O)CCSCc1ccn(-c2ccccc2)n1` are 229 µM and over 501 µM.
As for `NCCc1nc(-c2ccccn2)cs1`, the IC50 was 1.16 µM in assay [1] and 2.67 µM in assay [2].
In the same order, the values of `CCCNC(=O)c1cc(Br)c[nH]1` are over 501 µM and over 501 µM.
For `COC(=O)c1ccc(CSc2n[nH]c(C)n2)o1`, in that order: 181 µM and 239 µM.
`NCc1cnn(-c2cccc(Cl)c2)c1`: the IC50 in assay [1] was 260 µM; in assay [2] it was 258 µM.
In the same order, the values of `CNC(=O)NC(=O)CCN1CCN(S(C)(=O)=O)CC1` are over 501 µM and 245 µM.
In the same order, the values of `CC(N)Cc1ccccc1Sc1ccc(O)cc1` (stereo unspecified) are over 50.1 µM and over 50.1 µM.
In the same order, the values of `Cc1ncsc1CCC(=O)N1CCCC1c1cccnc1` (stereo unspecified) are over 50.1 µM and over 50.1 µM.
Regarding `c1ccc(NC2CCN(C3CCCC3)C2)nc1` (stereo unspecified), the IC50 in assay [1] and in assay [2] was over 501 µM in each case.
Turning to `O=C1C=CC(=O)N1c1ccccc1OC(F)F`, the figures for the IC50 in assay [1] and in assay [2] were 143 µM and 109 µM, respectively.
In the case of `CCC(CC)C(CN)N(C)C` (stereo unspecified), the IC50 in assay [1] is 204 µM; in assay [2], 78.1 µM.
For `N#Cc1cccnc1N1CCOC(c2nccs2)C1` (stereo unspecified), in that order: over 501 µM and 138 µM.
In the case of `CC(=O)NCC1CN(c2ncccc2F)CCO1` (stereo unspecified), the IC50 in assay [1] is 210 µM; in assay [2] it was 243 µM.
In the same order, the values of `Cc1nnc(SCCC(=O)N(C)Cc2c(F)cccc2Cl)[nH]1` are over 50.1 µM and over 50.1 µM.
In the same order, the values of `CCS(=O)(=O)NCCNS(=O)(=O)c1ccc(C)cc1Cl` are over 501 µM and over 501 µM.
`NCCn1nc(C2CCN(Cc3ccccc3Cl)C2)c2nccnc21` (stereo unspecified): the IC50 in assay [1] and in assay [2] was over 50.1 µM in each case.
In the case of `O=C(OCCNc1ncccn1)c1ccc(Br)s1`, the figures for the IC50 in assay [1] and in assay [2] were 29.8 µM and over 50.1 µM, respectively.
With `N#Cc1ccccc1CN1CCCC1CO` (stereo unspecified), the results for the IC50 in assay [1] and in assay [2] were 176 µM and 129 µM, respectively.
For `Cc1ccc(C(N)c2ccccn2)cc1` (stereo unspecified), in that order: 191 µM and 90.7 µM.
Regarding `NC(=O)C1(c2cnccn2)CCCN1C(=O)Cc1ccsc1` (stereo unspecified), the IC50 in assay [1] and in assay [2] was over 50.1 µM each time.
With `CC(C)c1ncc(C(=O)N2CCS(=O)(=O)CC2)cn1`, the IC50 in assay [1] and in assay [2] was over 501 µM each time.
With `Cc1cc2c(cc1CNC(Cc1cccs1)c1nccs1)OCO2` (stereo unspecified), the IC50 was over 50.1 µM in assay [1] and 24.4 µM in assay [2].
For `NCc1nc(-c2cccc(C(F)(F)F)c2)no1`, in that order: 130 µM and 262 µM.
Take `OC(CN1CCOC2(CCCC2)C1)c1ccccc1` (stereo unspecified): the IC50 in assay [1] was 172 µM; in assay [2], 379 µM.
For `CN(C)CCOc1ccccc1CN`, the IC50 in assay [1] and in assay [2] was over 501 µM throughout.
Regarding `CCCc1cncnc1N1CCC(NCc2cc3ccccc3[nH]2)CC1`, the IC50 in assay [1] and in assay [2] was 18.3 µM each time.
On to `Cc1ccc(OCCSCCn2nc3ccccn3c2=O)cc1`, for which the IC50 in assay [1] and in assay [2] was over 50.1 µM throughout.
Turning to `Cc1ccc(C(=O)NCCCN(C)S(C)(=O)=O)cc1-n1cccc1`, the results for the IC50 in assay [1] and in assay [2] were over 50.1 µM and 30.9 µM, respectively.
For `COc1cccc(CCC2CCCN(C(=O)c3ccc(OC)o3)C2)c1` (stereo unspecified), in that order: 23 µM and 27.7 µM.
For `CCOCC(=O)NC(C)Cc1ccccc1Br` (stereo unspecified), in that order: 0.742 µM and 0.928 µM.
For `CCc1cccc2c1N(C(=O)CNC)CC2`, in that order: over 501 µM and 367 µM.
As for `CC1CCCCN1S(=O)(=O)N1CCNCC1` (stereo unspecified), the IC50 in assay [1] and in assay [2] was over 501 µM in each case.
For `CCCS(=O)(=O)NCC(O)Cc1ccccc1` (stereo unspecified), the IC50 in assay [1] was 197 µM; in assay [2], 136 µM.
In the same order, the values of `COc1ccc(C2SCC(=O)N2c2ncc(C)s2)cc1` (stereo unspecified) are 30.1 µM and 5.8 µM.
In the same order, the values of `COc1ccc(CN2CCCC(Nc3cccc(F)c3)C2)cc1O` (stereo unspecified) are 16.5 µM and 11 µM.
Regarding `Cc1cc2c(cc1S(=O)(=O)N1CCCC(N)C1)OCO2` (stereo unspecified), the figures for the IC50 in assay [1] and in assay [2] were over 501 µM and 261 µM, respectively.
In the same order, the values of `COCCOCCNC(=O)C(C)Oc1ccccc1C(F)(F)F` (stereo unspecified) are over 50.1 µM and over 50.1 µM.
For `CCNC(=O)c1ccn(-c2ccccc2)n1`, in that order: 232 µM and 340 µM.
In the same order, the values of `CC1=NOC(C(=O)NCCc2nc3c(s2)CCCC3)C1` (stereo unspecified) are 286 µM and 169 µM.
On to `CC(CNC(=O)Cn1cccn1)Sc1ccccc1` (stereo unspecified), for which the IC50 is 121 µM in assay [1] and 135 µM in assay [2].
In the same order, the values of `Cn1cc(CN2CC[C@@H]3[C@@H](CCC(=O)N3CCC3=CCCCC3)C2)cn1` are over 50.1 µM and over 50.1 µM.
For `NCc1coc(-c2cccs2)n1`, in that order: 298 µM and 144 µM.
In the same order, the values of `O=S(=O)(CCN1CC[C@@H](O)C1)c1cccc(Br)c1` are 146 µM and 112 µM.
For `N#Cc1cnc2cc(F)cc(F)c2c1NC1CCN(CC(N)=O)CC1`, the IC50 in assay [1] and in assay [2] was over 50.1 µM each time.
Take `CS(=O)(=O)NCc1ccnc(Oc2ccc(F)cc2)c1`: the values for the IC50 in assay [1] and in assay [2] were over 501 µM and 154 µM, respectively.
Turning to `CSc1cccc(CN(C)C(=O)CNC2CC2)c1`, the IC50 in assay [1] is over 501 µM; in assay [2], 297 µM.
Turning to `CSCCC(=O)NC(C)c1ccc2c(c1)OCCCO2` (stereo unspecified), the IC50 in assay [1] and in assay [2] was over 501 µM each time.
Regarding `CCN(C(=O)CN1CCCC1Cc1ccccc1)c1ccccc1` (stereo unspecified), the IC50 in assay [1] is over 50.1 µM; in assay [2], 44.2 µM.
`CCCc1nc(C(=O)NCCc2cccnc2)cs1`: the IC50 in assay [1] is 281 µM; in assay [2], 277 µM.
